Tests used:
[1] = Copper titration with Murexide indicator; format: physicochemical; details: 2 g (0.009 mmol) in 100 mL water, 0.01 molar copper chloride, approximately pH 8, sodium acetate buffer
Method: Copper titration value is used to measure the extent of biodegradation of the chelating agents during the procedure. Titration is performed using ammonium purpurate (indicator for complexometric titration, commercially available from Aldrich Chemical Co., Inc. under the trade designation Murexide) at approximately pH 8, and using sodium acetate as buffer. Titration of […] N-[2-(carboxymethoxy)ethyl]-N-(carboxymethyl)glycine (0.009 mmol) in 100 mL water with 0.01 molar copper chloride gives an endpoint of 0.99 mL, representing a 1:1 chelation of copper. Analysis is performed daily for a period of 28 days.

[2] = Calcium oxalate titration (calcium chelation capacity); format: physicochemical
Method: The applicability of N-[2-(carboxymethoxy)ethyl]-N-(carboxymethyl)glycine for use in hard surface cleaners, is measured by the calcium oxalate titration.
For titration with calcium oxalate, N-[2-(carboxymethoxy)ethyl]-N-(carboxymethyl)glycine (between 1 to 2 millimoles) is placed in a 60 mL beaker. After the addition of 30 mL deionized water and 5 mL of a 3% ammonium oxalate solution, the pH is slowly brought to about 10 by the addition of 20% sodium hydroxide while stirring. The pH is then adjusted to about 11.6 with sodium hydroxide and the solution is titrated with 0.1 M CaCl2 to the first permanent turbidity. The chelation valve is then determined from the mL of titrant used based on the following calculation.
Chelation Value=(mL titrant used×molarity titrant)×100 mg CaCO3 per mmole÷sample wt. in grams×activity of sample (as acid form)
The chelation value is the mg of CaCO3 that can be chelated by one active gram of a chelant, such as N-[2-(carboxymethoxy)ethyl]-N-(carboxymethyl)glycine (IX).
The turbidity produced in the oxalate titration is due to the formation of calcium oxalate. The results for the titration of N-[2-(carboxymethoxy)ethyl]-N-(carboxymethyl)glycine in the presence of oxalate is compared with iminodiacetic acid (IDA) and given in Table II below.

O=C(O)COCCN(CC(=O)O)CC(=O)O [(IX), N-[2-(carboxymethoxy)ethyl]-N-(carboxymethyl)glycine]
Copper titration endpoint [1]: 0.99 mL
Chelation value compared with IDA (in words) [2]: far superior to IDA
Chelation Value ([2]; pH about 11.6, 0.1 M CaCl2 to first permanent turbidity): 423 mg of CaCO3 per active gram of

From patent US6627772B2, “Preparation of N-[2-(carboxymethoxy) ethyl]-N-(carboxymethyl) glycine” (The Dow Chemical Company, priority 1999, dated 2003)
